Measured values published in patent US10208074B2, “Pyrazole compounds and method for making and using the compounds” (Rigel Pharmaceuticals, Inc., priority 2015, dated 2019).
Structures can show the parent of a compound that is named as a salt. Where two headings read alike, the source gives them in different places.

How the values were obtained:
IL-23p19 = experiment: LPS induced IL23p19 in THP-1 cells (with IFNγ primed) assay; format: cell-based, Human
Procedure, shortened: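 Readout is secreted IL-23p19, quantified by chemiluminescent sandwich ELISA after 18 h LPS (1 ug/mL) stimulation of THP-1 cells that had been IFNγ-primed (50 ng/mL, ~18 h) and given compound 1 h beforehand at 37 °C. EC50 derived by curve fit; cytotoxicity tracked with Cell Titer Glo.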

IL-23 (p19/p40) = experiment: IL23-p19 ELISA, Dendritic, LPS (compound screening using DC cells); format: cell-based, Human
Procedure, shortened: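 IL-23 in supernatants quantified by sandwich ELISA (anti-p19 capture, biotinylated anti-p40 detection, chemiluminescent readout) after 18 h LPS (1 μg/ml) stimulation. Cells were monocyte-derived DCs (GM-CSF/IL-4, 7 d), IFNγ-primed 24 h and given compound 1 h before LPS; viability by CellTiter Glo.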

[1] = Homo sapiens, THP-1, 18 h, THP-1 cells, IFNγ primed, LPS 1 ug/mL, 18 hours, 10 pt, read-out: IL23-p19 ELISA, THP1-IFNy, LPS, 10 pt EC50
[2] = Homo sapiens, 18 h, PBMC-derived DC cells, IFNγ primed, LPS 1 μg/ml, 18 hours, 10 pt, read-out: IL23-p19 ELISA, Dendritic, LPS, 10 pt, EC50
[3] = THP-1 cells, IFNγ primed, LPS 1 ug/mL, 18 hours, 10 pt, read-out: IL23-p19 ELISA, THP1-IFNy, LPS, 10 pt EC50
[4] = PBMC-derived DC cells, IFNγ primed, LPS 1 μg/ml, 18 hours, 10 pt, read-out: IL23-p19 ELISA, Dendritic, LPS, 10 pt, EC50

| SMILES | EC50 (IL-23p19; [1]) [µM] | EC50 (IL-23 (p19/p40); [2]) [µM] | further results |
| --- | --- | --- | --- |
| CC(OC(=O)C(C)C)OC(=O)n1cc(-c2nc(C(=O)Nc3cn(C)nc3-c3ccccn3)cs2)cn1 (centres unmarked) [II-2, 1-(isobutyryloxy)ethyl 4-(4-((1-methyl-3-(pyridin-2-yl)-1H-pyrazol-4-yl)carbamoyl)thiazol-2-yl)-1H-pyrazole-1-carboxylate] | 0.196 | 0.298 |  |
| COc1ccc(Cn2cc(-c3nc(C(=O)Nc4cn(C5CC(OC)C5)nc4-c4ccccn4)cs3)cn2)cc1 (centres unmarked) [II-51, 2-(1-(4-methoxybenzyl)-1H-pyrazol-4-yl)-N-(1-(3-methoxycyclobutyl)-3-(pyridin-2-yl)-1H-pyrazol-4-yl)thiazole-4-carboxamide] | 3.61 | 26.6 |  |
| O=C(Nc1cn(C2CN(C(=O)N3CCCC3)C2)nc1-c1ccccn1)c1ccc(-c2cn[nH]c2)o1 [Compound I-93, 5-(1H-Pyrazol-4-yl)-N-{3-(pyridine-2-yl)-1-(pyrrolidine-1-carbonyl)azetidin-3-yl}-1H-pyrazol-4-yl)furan-2-carboxamide, formate salt] | 0.0108 | 0.008 |  |
| CCO[C@H]1C[C@@H](n2cc(NC(=O)c3csc(-c4cnn(COP(=O)(O)O)c4)n3)c(-c3ccccn3)n2)C1 [II-85, (4-(4-((1-((1,3-cis)-3-ethoxycyclobutyl)-3-(pyridin-2-yl)-1H-pyrazol-4-yl)carbamoyl)thiazol-2-yl)-1H-pyrazol-1-yl)methyl phosphate triethylamine salt] |  |  | EC50 (IL-23p19; [3]): 0.0499 µM; EC50 (IL-23 (p19/p40); [4]): 0.287 µM |
| CN(C)[C@H]1C[C@@H](n2cc(NC(=O)c3csc(-c4cn[nH]c4)n3)c(-c3ccccn3)n2)C1 [II-15, N-(1-((1s,3s)-3-(dimethylamino)cyclobutyl)-3-(pyridin-2-yl)-1H-pyrazol-4-yl)-2-(1H-pyrazol-4-yl)thiazole-4-carboxamide] | 0.0064 | 0.0096 |  |
| Cc1n[nH]cc1-c1nc(C(=O)Nc2cn(C)nc2-c2ccccn2)cs1 [II-27, 2-(3-methyl-1H-pyrazol-4-yl)-N-(1-methyl-3-(pyridin-2-yl)-1H-pyrazol-4-yl)thiazole-4-carboxamide] | 0.0741 | 0.331 |  |
| CCO[C@H]1CC[C@H](n2cc(NC(=O)c3ccc(-c4cn[nH]c4)o3)c(-c3ccccn3)n2)CC1 [Compound I-130, N-(1-((1r,4r)-4-ethoxycyclohexyl)-3-(pyridin-2-yl)-1H-pyrazol-4-yl)-5-(1H-pyrazol-4-yl)furan-2-carboxamide formate] | 0.0483 | 0.023 |  |
| COCCn1cc(NC(=O)c2ccc(-c3cnn(COP(=O)(O)O)c3)o2)c(-c2ccccn2)n1 [Compound I-14, sodium (4-(5-((1-(2-methoxyethyl)-3-(pyridin-2-yl)-1H-pyrazol-4-yl)carbamoyl)furan-2-yl)-1H-pyrazol-1-yl)methyl phosphate] |  |  | EC50 (IL-23p19; Homo sapiens, THP-1, 18 h, read-out: IL23-p19 ELISA, THP1-IFNy, LPS, 10 pt EC50 (μM)): 1.25 µM; EC50 (IL-23 (p19/p40); Homo sapiens, 18 h, read-out: IL23-p19 ELISA, Dendritic, LPS, 10 pt, EC50 (μM)): 0.571 µM |
| O=C(Nc1cn([C@H]2C[C@@H](OCCF)C2)nc1-c1ccccn1)c1csc(-c2cn[nH]c2)n1 [II-130, N-(1-((1s,3s)-3-(2-fluoroethoxy)cyclobutyl)-3-(pyridin-2-yl)-1H-pyrazol-4-yl)-2-(1H-pyrazol-4-yl)thiazole-4-carboxamide] | 0.056 | 0.0898 |  |
| CCOCCn1cc(NC(=O)c2csc(-c3c[nH]nc3C)n2)c(-c2ccccn2)n1 [II-31, N-(1-(2-ethoxyethyl)-3-(pyridin-2-yl)-1H-pyrazol-4-yl)-2-(3-methyl-1H-pyrazol-4-yl)thiazole-4-carboxamide] |  |  | EC50 (IL-23p19; [3]): 0.17 µM; EC50 (IL-23 (p19/p40); [4]): 0.799 µM |
| Cc1n[nH]cc1-c1nc(C(=O)Nc2cn(CC(F)(F)F)nc2-c2ccccn2)cs1 [II-100, 2-(3-methyl-1H-pyrazol-4-yl)-N-(3-(pyridin-2-yl)-1-(2,2,2-trifluoroethyl)-1H-pyrazol-4-yl)thiazole-4-carboxamide] | 0.0561 | 0.226 |  |
| CCOCCn1cc(NC(=O)c2ccc(-c3cnn(C)c3)o2)c(-c2ccccn2)n1 [Compound I-45, N-(1-(2-ethoxyethyl)-3-(pyridin-2-yl)-1H-pyrazol-4-yl)-5-(1-methyl-1H-pyrazol-4-yl)furan-2-carboxamide formate] | 1.08 | 5.45 |  |
| CCOCCn1cc(NC(=O)c2csc(-c3cn[nH]c3)n2)c(-c2ccccn2)n1 [II-25, N-(1-(2-ethoxyethyl)-3-(pyridin-2-yl)-1H-pyrazol-4-yl)-2-(1H-pyrazol-4-yl)thiazole-4-carboxamide] |  |  | EC50 (IL-23p19; [3]): 0.146 µM; EC50 (IL-23 (p19/p40); [4]): 0.17 µM |
| COCCOCCn1cc(NC(=O)c2coc(-c3cc[nH]n3)n2)c(-c2ccccn2)n1 [III-6, N-(1-(2-(2-methoxyethoxy)ethyl)-3-(pyridin-2-yl)-1H-pyrazol-4-yl)-2-(1H-pyrazol-3-yl)oxazole-4-carboxamide] | 0.238 | 0.217 |  |
| CC(C)(C)OC(=O)N1CC(n2cc(NC(=O)c3csc(-c4cn[nH]c4)n3)c(-c3ccccn3)n2)C1 [II-54] | 0.171 | 0.189 |  |

Continued, in another order:

| EC50 (IL-23p19; [1]) [µM] | EC50 (IL-23 (p19/p40); [2]) [µM] | SMILES | further results |
| --- | --- | --- | --- |
| 0.144 | 0.0921 | CCO[C@H]1C[C@@H](n2cc(NC(=O)c3csc(-c4cn[nH]c4)n3)c(-c3cc(F)ccn3)n2)C1 [II-158, N-(1-((cis)-3-ethoxycyclobutyl)-3-(4-fluoropyridin-2-yl)-1H-pyrazol-4-yl)-2-(1H-pyrazol-4-yl)thiazole-4-carboxamide] |  |
| 0.27 | 0.071 | O=C(Nc1cn(C2CCC2)nc1-c1ccccn1)c1coc(-c2cn[nH]c2)n1 [III-5, N-(1-cyclobutyl-3-(pyridin-2-yl)-1H-pyrazol-4-yl)-2-(1H-pyrazol-4-yl)oxazole-4-carboxamide] |  |
| 0.0771 | 0.113 | Cn1cc(NC(=O)c2csc(-c3cn[nH]c3)n2)c(-c2ccccn2)n1 [II-26, N-(1-methyl-3-(pyridin-2-yl)-1H-pyrazol-4-yl)-2-(1H-pyrazol-4-yl)thiazole-4-carboxamide] |  |
| 0.243 | 0.17 | CCOCCn1cc(NC(=O)c2coc(-c3cn[nH]c3)n2)c(-c2ccccn2)n1 [III-3, N-(1-(2-ethoxyethyl)-3-(pyridin-2-yl)-1H-pyrazol-4-yl)-2-(1H-pyrazol-4-yl)oxazole-4-carboxamide] |  |
| 0.749 | 0.141 | CCO[C@H]1C[C@@H](n2cc(NC(=O)c3csc(-c4cn[nH]c4)n3)c(-c3ccc(F)cn3)n2)C1 [II-153, N-(1-((cis)-3-ethoxycyclobutyl)-3-(5-fluoropyridin-2-yl)-1H-pyrazol-4-yl)-2-(1H-pyrazol-4-yl)thiazole-4-carboxamide] |  |
| 1.15 | 2.48 | CCN(CC)C(=O)n1cc(NC(=O)c2csc(-c3cn[nH]c3)n2)c(-c2ccccn2)n1 [II-128, N-(1-(diethylcarbamoyl)-3-(pyridin-2-yl)-1H-pyrazol-4-yl)-2-(1H-pyrazol-4-yl)thiazole-4-carboxamide] |  |
| 0.617 | 1.57 | CCOCCn1cc(NC(=O)c2ccc(-c3cnn(COP(=O)(O)O)c3)o2)c(-c2ccccn2)n1 [Compound I-54, (4-(5-((1-(2-ethoxyethyl)-3-(pyridin-2-yl)-1H-pyrazol-4-yl)carbamoyl)furan-2-yl)-1H-pyrazol-1-yl)methyl dihydrogen phosphate] |  |
| 0.14 | 0.327 | CCOCCn1cc(NC(=O)c2csc(-c3cn[nH]c3)n2)c(-c2nccs2)n1 [II-109, N-(1-(2-ethoxyethyl)-3-(thiazol-2-yl)-1H-pyrazol-4-yl)-2-(1H-pyrazol-4-yl)thiazole-4-carboxamide] |  |
| 0.0481 | 0.115 | CCO[C@H]1C[C@@H](n2cc(NC(=O)c3ccc(-c4cn[nH]c4)o3)c(-c3nccs3)n2)C1 [Compound I-62, N-(1-((1s,3s)-3-ethoxycyclobutyl)-3-(thiazol-2-yl)-1H-pyrazol-4-yl)-5-(1H-pyrazol-4-yl)furan-2-carboxamide formate] |  |
| 5.52 | 7.5 | CC1(Cn2cc(-c3ccc(C(=O)Nc4cn(CC5(C)COC5)nc4-c4ccccn4)o3)cn2)COC1 [Compound I-48, 5-(1-((3-methyloxetan-3-yl)methyl)-1H-pyrazol-4-yl)-N-(1-((3-methyloxetan-3-yl)methyl)-3-(pyridin-2-yl)-1H-pyrazol-4-yl)furan-2-carboxamide formate] |  |
| 18.9 | 1.22 | CN1CCN(c2ccc(-c3nn(C)cc3NC(=O)c3ccc(-c4cn[nH]c4)o3)nc2)CC1 [Compound I-106, N-(1-methyl-3-(5-(4-methylpiperazin-1-yl)pyridin-2-yl)-1H-pyrazol-4-yl)-5-(1H-pyrazol-4-yl)furan-2-carboxamide] |  |
| 0.664 | 1.17 | O=C(Nc1cn(Cc2ccccc2)nc1-c1ccccn1)c1csc(-c2cn[nH]c2)n1 [II-120, N-(1-benzyl-3-(pyridin-2-yl)-1H-pyrazol-4-yl)-2-(1H-pyrazol-4-yl)thiazole-4-carboxamide] |  |
| 0.206 | 0.0972 | CCO[C@H]1C[C@@H](n2cc(NC(=O)c3ccc(-c4c[nH]nc4C)o3)c(-c3ccccn3)n2)C1 [Compound I-29, N-(1-((1,3-cis)-3-ethoxycyclobutyl)-3-(pyridin-2-yl)-1H-pyrazol-4-yl)-5-(3-methyl-1H-pyrazol-4-yl)furan-2-carboxamide] |  |
